Patent US4994582A, “Novel antibiotic NK130119” (Nippon Kayaku Kabushiki Kaisha, priority 1989, dated 1991)
Values after ≈ are worked out from the molar mass of the structure shown. Like-named read-outs stand apart in the source and are kept apart here.

Experiments:
[1] = system: mouse melanoma cells (B16); test: growth-inhibitory effect on mouse melanoma cells, dye exclusion method; type: cell-based; conditions: 72 hours
Method: The growth-inhibitory effects of the compound of the present invention on mouse melanoma cells (B16) and human melanoma cells (G361) were examined. A 96-well plate was inoculated with mouse melanoma cells at a ratio of 1.5×10^3 cells per well, while another 96-well plate was inoculated with human melanoma cells at a ratio of 1.0×10^3 per well. These cells were incubated in an incubator at 37° C. under 5% CO2. Then the compound of the present invention was added thereto at various concentrations. Cells in each well were counted by the dye exclusion method 72 hours after the addition to thereby evaluate the growth-inhibitory effect of the test compound on the mouse melanoma cells and that on the human melanoma cells at various concentrations.

[2] = system: HeLa S3 cells; test: growth-inhibitory effect on HeLa S3 culture cells, dye exclusion method; type: cell-based; conditions: Homo sapiens, 72 h
Method: The growth-inhibitory effect of the compound of the present invention on HeLa S3 culture cells was examined. A 96-well plate was inoculated with HeLa S3 cells at a ratio of 1.5×10^3 cells/well and incubated. One day after the inoculation, the compound of the present invention was added to the culture medium at various concentrations. Three days after the addition, cells in each well were counted by the dye exclusion method to thereby evaluate the growth-inhibitory effect of the compound of the present invention at various concentrations on HeLa S3 cells.

[3] = solubility; type: physicochemical
[4] = system: bovine adrenal capillary endothelial cells; test: growth-inhibitory effect on endothelial cells, Coulter counter; type: cell-based; conditions: Bos taurus, Endothelial cell, 72 h, three days
Method: The growth-inhibitory effect of the compound of the present invention on endothelial cells was examined. A 96-well plate was inoculated with bovine adrenal capillary endothelial cells at a ratio of 1×10^4 cells per well. One day after the inoculation, the compound of the present invention was added thereto at various concentrations. Cells in each well were counted with a Coulter counter three days after the addition to thereby evaluate the growth-inhibitory effect of the test compound on the capillary endothelial cells. […] Thus the IC50 of the compound of the present invention on the endothelial cells was 0.0003 μg/ml, showing a strong growth-inhibitory effect.

[5] = system: Rhizopus hangchao; test: antifungal spectrum on Czapek Dox solution agar; type: cell-based; conditions: read-out: Minimum inhibitory concentration
Source text: (§1) the antifungal spectrum of the compound of the present invention was examined.

[6] = system: Aspergillus niger; test: antifungal spectrum on Czapek Dox solution agar; type: cell-based; conditions: read-out: Minimum inhibitory concentration
Source text: as §1

[7] = system: Penicillium chrysogenum; test: antifungal spectrum on Czapek Dox solution agar; type: cell-based; conditions: read-out: Minimum inhibitory concentration
Source text: as §1

[8] = system: Altenaria kikuchiana; test: antifungal spectrum on Czapek Dox solution agar; type: cell-based; conditions: read-out: Minimum inhibitory concentration
Source text: as §1

[9] = system: mouse colonic cancer cells (Colon 26); test: growth-inhibitory effect on mouse colonic cancer cells, dye exclusion method; type: cell-based
Method: The growth-inhibitory effects of the compound of the present invention on mouse colonic cancer cells (Colon 26) and human colonic cancer cells (SW1116) were examined. A 96-well plate was inoculated with mouse colonic cancer cells at a ratio of 1.5×10^3 cells per well, while another 96-well plate was inoculated with human colonic cancer cells at a ratio of 3.0×10^3 per well. These cells were incubated in an incubator at 37° C. under 5% CO2 for 24 hours. Then the compound of the present invention was added thereto at various concentrations. Cells in each well were counted by the dye exclusion method 65 hours and 96 hours after the addition to thereby evaluate the growth-inhibitory effect of the test compound on the mouse colonic cancer cells and that on the human colonic cancer cells.

[10] = system: Botrytis cinera; test: antifungal spectrum on potato sucrose agar medium; type: cell-based; conditions: read-out: Minimum inhibitory concentration
Source text: as §1
(*) potato sucrose agar medium was used.

[11] = system: mouse pulmonary cancer cells (LL); test: growth-inhibitory effect on mouse pulmonary cancer cells, dye exclusion method; type: cell-based; conditions: 72 h, three days
Method: the growth-inhibitory effects of the compound of the present invention on mouse pulmonary cancer cells (LL) and human plumonary cancer cells (PC-3) were examined.
A 96-well plate was inoculated with mouse polmonary cancer cells at a ratio of 8.0×10^2 cells per well, while another 96-well plate was inoculated with human pulmonary cancer cells at a ratio of 2.5×10^3 per well. These cells were incubated in an incubator at 37° C. under 5% CO2 for 24 hours. Then the compound of the present invention was added thereto at various concentrations. Cells in each well were counted by the dye exclusion method three days after the addition to thereby evaluate the growth-inhibitory effect of the test compound on the mouse pulmonary cancer cells (LL) and that on the human pulmonary cancer cells (PC-3).

[12] = system: larva of mosquito culices (a sensitive species); test: insecticidal action, mortality of mosquito larvae; type: in vivo; conditions: read-out: Mortality rate, larvae of mosquito
Method: The insecticidal action of the compound of the present invention was examined by the following method.
(2) A larva of mosquito culices (a sensitive species) was used as a test vermin, and the mortality rate thereof was assayed according to an ordinary method (described on page 109 of "Noyaku Jikkenho I, Sacchuzaihen" published by Soft Science, Inc.).
Specifically, 10 ml of well water was placed in a vessel (15-ml Petridish), and 5 larvae of mosquito culices (the third stage) were released in the vessel. A solution of the compound of the present invention in acetone (0.1%) was added thereto so as to have a predetermined concentration. The vessel was allowed to stand in a thermostatic chamber (26°±1° C.) for a predetermined period of time, and the life and death of the test vermin were investigated.

## CCC1/C=C/C=C/CC(C)C(O)C(C)(O)C(=O)C(C)C(O)C(C)C(=O)C(C)C(O)C(C)/C=C/C(=O)OC2C(C)C(CC1)OC1(CCC(C)C(CC(C)O)O1)C2CC (stereo not shown) [NK130119]
[1]; Mus musculus, B16, 0.0006 μg/ml, read-out: Growth-inhibitory ratio
  inhibition at 0.0006 µg/mL: 0.63%
[1]; Mus musculus, B16, 0.0024 μg/ml, read-out: Growth-inhibitory ratio
  inhibition at 0.0024 µg/mL: 0.63%
[1]; Mus musculus, B16, 0.0097 μg/ml, read-out: Growth-inhibitory ratio
  inhibition at 0.0097 µg/mL: 1.32%
[1]; Mus musculus, B16, 0.039 μg/ml, read-out: Growth-inhibitory ratio
  inhibition at 0.039 µg/mL: 34.2%
[1]; Mus musculus, B16, 0.156 μg/ml, read-out: Growth-inhibitory ratio
  inhibition at 0.156 µg/mL: 45.9%
[1]; Mus musculus, B16, 0.625 μg/ml, read-out: Growth-inhibitory ratio
  inhibition at 0.625 µg/mL: 49.7%
[1]; Mus musculus, B16, 2.5 μg/ml, read-out: Growth-inhibitory ratio
  inhibition at 2.5 µg/mL: 79%
[1]; Mus musculus, B16, 10 μg/ml, read-out: Growth-inhibitory ratio
  inhibition at 10 µg/mL: 101%
[1]; mouse melanoma cells (B16)
  IC50: 0.64 µg/mL (≈ 0.795 µM)
[2]; HeLa S3, 0.039 μg/ml, three days, read-out: Growth-inhibitory ratio
  inhibition at 0.039 µg/mL: 40%
[2]; HeLa S3, 0.156 μg/ml, three days, read-out: Growth-inhibitory ratio
  inhibition at 0.156 µg/mL: 43.5%
[2]; HeLa S3, 0.625 μg/ml, three days, read-out: Growth-inhibitory ratio
  inhibition at 0.625 µg/mL: 47.5%
[2]; HeLa S3, 2.5 μg/ml, three days, read-out: Growth-inhibitory ratio
  inhibition at 2.5 µg/mL: 55.3%
[2]; HeLa S3, 10 μg/ml, three days, read-out: Growth-inhibitory ratio
  inhibition at 10 µg/mL: 83.6%
[2]; HeLa S3 cells, three days after addition
  IC50: 0.987 µg/mL (≈ 1.23 µM)
[3]; hexane
  solubility in hexane: hardly soluble
[3]; methanol, acetone, ethyl acetate and ethanol
  solubility in organic solvents: soluble
[3]; water
  solubility in water: hardly soluble
[4]; bovine adrenal capillary endothelial cells
  IC50: 0.0003 µg/mL (≈ 0.000373 µM)
[4]; endothelial cells, 0.000128 μg/ml, read-out: Growth-inhibitory ratio
  inhibition at 0.000128 µg/mL: 35.2%
[4]; endothelial cells, 0.00064 μg/ml, read-out: Growth-inhibitory ratio
  inhibition at 0.00064 µg/mL: 62.9%
[4]; endothelial cells, 0.0032 μg/ml, read-out: Growth-inhibitory ratio
  inhibition at 0.0032 µg/mL: 77.9%
[4]; endothelial cells, 0.016 μg/ml, read-out: Growth-inhibitory ratio
  inhibition at 0.016 µg/mL: 90.1%
[5]
  MIC: > 100 µg/mL
[6]
  MIC: 1.56 µg/mL (≈ 1.94 µM)
[7]
  MIC: 0.78 µg/mL (≈ 0.969 µM)
[8]
  MIC: 0.78 µg/mL (≈ 0.969 µM)
[9]; Mus musculus, Colon 26, 0.0006 μg/ml, read-out: Growth-inhibitory ratio
  inhibition at 0.0006 µg/mL: 2.54%
[9]; Mus musculus, Colon 26, 0.0024 μg/ml, read-out: Growth-inhibitory ratio
  inhibition at 0.0024 µg/mL: 4.17%
[9]; Mus musculus, Colon 26, 0.0098 μg/ml, read-out: Growth-inhibitory ratio
  inhibition at 0.0098 µg/mL: 41%
[9]; Mus musculus, Colon 26, 0.039 μg/ml, read-out: Growth-inhibitory ratio
  inhibition at 0.039 µg/mL: 87.6%
[9]; Mus musculus, Colon 26, 0.156 μg/ml, read-out: Growth-inhibitory ratio
  inhibition at 0.156 µg/mL: 90.3%
[9]; Mus musculus, Colon 26, 0.625 μg/ml, read-out: Growth-inhibitory ratio
  inhibition at 0.625 µg/mL: 88.9%
[9]; Mus musculus, Colon 26, 2.5 μg/ml, read-out: Growth-inhibitory ratio
  inhibition at 2.5 µg/mL: 96%
[9]; Mus musculus, Colon 26, 10 μg/ml, read-out: Growth-inhibitory ratio
  inhibition at 10 µg/mL: 101%
[9]; mouse colonic cancer cells (Colon 26), cells counted 65 hours and 96 hours after addition
  IC50: < 0.025 µg/mL
[10]
  MIC: 6.25 µg/mL (≈ 7.76 µM)
[11]; mouse pulmonary cancer cells (LL)
  IC50: 0.0085 µg/mL (≈ 0.0106 µM)
[11]; mouse pulmonary cancer cells, 0.0006 μg/ml, read-out: Growth-inhibitory ratio
  inhibition at 0.0006 µg/mL: 21.6%
[11]; mouse pulmonary cancer cells, 0.0024 μg/ml, read-out: Growth-inhibitory ratio
  inhibition at 0.0024 µg/mL: 14.5%
[11]; mouse pulmonary cancer cells, 0.0098 μg/ml, read-out: Growth-inhibitory ratio
  inhibition at 0.0098 µg/mL: 54.4%
[11]; mouse pulmonary cancer cells, 0.039 μg/ml, read-out: Growth-inhibitory ratio
  inhibition at 0.039 µg/mL: 61%
[11]; mouse pulmonary cancer cells, 0.156 μg/ml, read-out: Growth-inhibitory ratio
  inhibition at 0.156 µg/mL: 66.2%
[11]; mouse pulmonary cancer cells, 0.625 μg/ml, read-out: Growth-inhibitory ratio
  inhibition at 0.625 µg/mL: 68.8%
[11]; mouse pulmonary cancer cells, 2.5 μg/ml, read-out: Growth-inhibitory ratio
  inhibition at 2.5 µg/mL: 83.7%
[11]; mouse pulmonary cancer cells, 10 μg/ml, read-out: Growth-inhibitory ratio
  inhibition at 10 µg/mL: 102%
[12]; 48 h, after 2 days
  mortality at 1 ppm: 73%
  mortality at 10 ppm: 100%
[12]; 144 h, after 6 days
  mortality at 1 ppm: 80%
  mortality at 10 ppm: 100%
[12]; 216 h, after 9 days
  mortality at 1 ppm: 80%
  mortality at 10 ppm: 100%
